From patent publication US20240123079A1 (Seagen Inc., priority 2021, published 2024) come the findings set out here.

One series concerns L540cy. Nature of the series: Cancer cell direct cytotoxicity assay (CellTiter-Glo), L540cy. Format: cell-based. The settings on record: Homo sapiens, 96 h, free compound, read-out: Compound X50. As to the method:
Bystander activity of ADCs was evaluated using Renca cancer cells and THP1-Dual™ cells (InvivoGen) which contain an IRF-Lucia luciferase reporter. Cells were cultured in RPMI-1640 (Gibco) with 10% heat-inactivated fetal bovine serum, Pen-Strep (100 U/ml-100 μg/ml, Gibco), HEPES (10 mM, Gibco), sodium pyruvate (1 mM, Gibco), MEM non-essential amino acids (1×, Gibco), GlutaMAX (1×, Gibco), and beta-mercaptoethanol (55 μM, Gibco). Renca cells were plated in a 96-well flat bottom tissue culture-treated clear polystyrene plate (Corning Costar #3596) at 50,000 cells per well in 100 μL. On the day following the initial plating, 50,000 THP1-Dual™ cells were added to each well with the indicated concentration of ADC in a total volume of 200 μL. Supernatant was harvested at 48 hours post addition of the THP1-Dual™ cells. To measure Lucia reporter signal, 10 μL of supernatant was combined with 40 μL of QUANTI-Luc™ Luminescence assay reagent (Invivogen PN: rep-qlc1) in a 96-well clear flat bottom tissue culture-treated black polystyrene plate (Corning Costar PN: 3603) and read on a Perkin Elmer Envision plate reader. In some experiments, HEK 293T cells engineered to express a murine protein typically expressed by immune cells (target antigen C— an immune cell antigen) were plated as above instead of Renca tumor cells. Cancer Cell Direct Cytotoxicity Assay
Cancer cells were counted and plated in 40 μL complete growth media in 384-well, white-walled tissue culture treated plates (Corning). Cell plates were incubated at 37° C. and with 5% CO2 overnight to allow the cells to equilibrate. Stock solutions containing ADCs or free drugs were serially diluted in RPMI-1640+20% fetal bovine serum (FBS). 10 μL of each concentration were then added to each cell plate in duplicate. Cells were then incubated at 37° C. and with 5% CO2 for 96 hours, upon which, the cell plates were removed from the incubator and allowed to cool to room temperature for 30 minutes prior to analysis. […] The luminescence of the samples was measured using an EnVision Multimode plate reader (Perkin Elmer, Waltham, MA). […]
On the technique in general: In ATP-based viability assays light output follows the ATP content of the culture.

A short description of series [1]: In vivo cytokine assay, plasma of Renca tumor-bearing mice. More on the design: species or system mouse. The settings on record: for IL1β in plasma / IL12p70 in plasma / IL-6 in plasma / IL-10 in plasma / IP10 in plasma / MCP-1 in plasma / IFNγ in plasma: Renca tumor-bearing mice, 1.48 mg/kg. On the procedure:
Cytokines were measured in mouse plasma harvested at 3, 6, 24, or 48 hours after treatment with compounds or ADCs using a Milliplex MAP mouse cytokine/chemokine magnetic bead panel assay kit (MCYTOMAG-70k custom 11-plex kit: MCP1, MIP1α, MIP1β, TNFα, IFNγ, IL-10, IL-12p70, IL-6, IL-1β, IP10, RANTES) and analyzed using a Luminex™ MAGPIX™ Instrument System. Values that were outside of the standard curve range (<3.2 or […]) were excluded from calculation of the mean values.

A value given as a limit tells only on which side of the number the result lay.

With `CCn1nc(C)cc1C(=O)Nc1nc2cc(C(N)=O)cc(O)c2n1C/C=C/Cn1c(NC(=O)c2cc(C)nn2CC)nc2cc(C(N)=O)cc(OC)c21` [Compound 1, (E)-1-(4-(5-carbamoyl-2-(1-ethyl-3-methyl-1H-pyrazole-5-carboxamido)-7-hydroxy-1H-benzo[d]imidazol-1-yl)but-2-en-1-yl)-2-(1-ethyl-3-methyl-1H-pyrazole-5-carboxamido)-7-methoxy-1H-benzo[d]imidazole-5-carboxamide], the IC50 in the series on L540cy amounted to 31 nM. Besides, in series [1] (3 h), the IL1β in plasma came out at 0.7 pg/mL, the IL12p70 in plasma was found to be 174 pg/mL, the IL-6 in plasma turned out to be 95.7 pg/mL and the IL-10 in plasma stood at 48.8 pg/mL. In series [1] (3 h), this compound yielded an IP10 in plasma of 703 pg/mL and an MCP-1 in plasma of 168 pg/mL. In series [1] (6 h), this compound showed an IFNγ in plasma of 0.2 pg/mL, an IL1β in plasma of 1.5 pg/mL, an IL12p70 in plasma below 3.2 pg/mL and an IL-6 in plasma of 6.8 pg/mL. In series [1] (6 h), the IL-10 in plasma stood at 0.8 pg/mL, the IP10 in plasma worked out at 3390 pg/mL and the MCP-1 in plasma is 796 pg/mL. For the same compound, in series [1] (24 h), the IFNγ in plasma was below 3.2 pg/mL, the IL1β in plasma was found to be 0.8 pg/mL, the IL12p70 in plasma was 140 pg/mL and the IL-6 in plasma came to 13.5 pg/mL. For the same compound, in series [1] (24 h), the IL-10 in plasma amounted to 34.6 pg/mL and the IP10 in plasma worked out at 551 pg/mL. Further, in series [1] (plasma of tumor-bearing mice), the “systemic pro-inflammatory cytokine (IL-6 and TNF) production” value was “induced very little pro-inflammatory cytokine (IL-6 and TNF) production”.
